Measurements published in US4401660A, “Ester derivatives of 5-O-mycaminosyl tylonolide and method of using same” (Eli Lilly and Company, priority 1981, dated 1983).

Key:
[1] = tested on: Mycoplasma gallisepticum; experiment: MIC, broth-dilution microtiter test (Table III); type: cell-based; design: unit not given here
Experimental: (§1) The MIC's in Table II were determined by standard agar-dilution assays. The MIC's in Table III were obtained using a conventional broth-dilution microtiter test.

[2] = tested on: Pasteurella haemolytica 23C; experiment: MIC, broth-dilution microtiter test (Table III); type: cell-based; design: unit not given here
Experimental: as §1

[3] = tested on: Pasteurella haemolytica 41D; experiment: MIC, broth-dilution microtiter test (Table III); type: cell-based; design: unit not given here
Experimental: as §1

[4] = tested on: Pasteurella multocida 68C; experiment: MIC, broth-dilution microtiter test (Table III); type: cell-based; design: unit not given here
Experimental: as §1

[5] = tested on: Pasteurella multocida 40G; experiment: MIC, broth-dilution microtiter test (Table III); type: cell-based; design: unit not given here
Experimental: as §1

[6] = tested on: Pasteurella haemolytica 22C; experiment: MIC, broth-dilution microtiter test (Table III); type: cell-based; design: unit not given here
Experimental: as §1

[7] = tested on: Staphylococcus aureus; experiment: MIC, broth-dilution microtiter test (Table III); type: cell-based; design: unit not given here
Experimental: as §1

[8] = tested on: Pasteurella multocida 17E; experiment: MIC, broth-dilution microtiter test (Table III); type: cell-based; design: unit not given here; conditions: bovine isolate
Experimental: as §1

[9] = tested on: Streptococcus sp. 80; experiment: MIC, broth-dilution microtiter test (Table III); type: cell-based; design: unit not given here
Experimental: as §1

[10] = tested on: Mycoplasma hyorhinis; experiment: MIC, broth-dilution microtiter test (Table III); type: cell-based; design: unit not given here
Experimental: as §1

[11] = tested on: Pasteurella multocida 60A; experiment: MIC, broth-dilution microtiter test (Table III); type: cell-based; design: unit not given here; conditions: avian isolate
Experimental: as §1

[12] = tested on: Pasteurella multocida 22A; experiment: MIC, broth-dilution microtiter test (Table III); type: cell-based; design: unit not given here
Experimental: as §1

[13] = tested on: Streptococcus pneumoniae Park I; experiment: MIC, standard agar-dilution assay (Table II); type: cell-based; design: unit not given here
Experimental: as §1

[14] = tested on: Staphylococcus epidermidis EPI2; experiment: MIC, standard agar-dilution assay (Table II); type: cell-based; design: unit not given here
Experimental: as §1

[15] = tested on: Haemophilus influenzae Holt; experiment: MIC, standard agar-dilution assay (Table II); type: cell-based; design: unit not given here; conditions: ampicillin-sensitive strain
Experimental: as §1

[16] = tested on: Staphylococcus aureus X1.1; experiment: MIC, standard agar-dilution assay (Table II); type: cell-based; design: unit not given here
Experimental: as §1

[17] = tested on: Streptococcus pyogenes C203; experiment: MIC, standard agar-dilution assay (Table II); type: cell-based; design: unit not given here
Experimental: as §1

[18] = tested on: Staphylococcus epidermidis EPI1; experiment: MIC, standard agar-dilution assay (Table II); type: cell-based; design: unit not given here
Experimental: as §1

[19] = tested on: Haemophilus influenzae R252; experiment: MIC, standard agar-dilution assay (Table II); type: cell-based; design: unit not given here; conditions: Haemophilus influenzae R252, ampicillin-resistant strain
Experimental: as §1

[20] = tested on: Streptococcus Group D 9960; experiment: MIC, standard agar-dilution assay (Table II); type: cell-based; design: unit not given here
Experimental: as §1

[21] = tested on: Staphylococcus aureus S13E; experiment: MIC, standard agar-dilution assay (Table II); type: cell-based; design: unit not given here
Experimental: as §1

[22] = tested on: Staphylococcus aureus X400; experiment: MIC, standard agar-dilution assay (Table II); type: cell-based; design: unit not given here; conditions: Staphylococcus aureus X400, methicillin-resistant strain
Experimental: as §1

[23] = tested on: Streptococcus Group D X66; experiment: MIC, standard agar-dilution assay (Table II); type: cell-based; design: unit not given here
Experimental: as §1

[24] = tested on: Staphylococcus aureus V41; experiment: MIC, standard agar-dilution assay (Table II); type: cell-based; design: unit not given here; conditions: Staphylococcus aureus V41, penicillin-resistant strain
Experimental: as §1

[25] = tested on: Pasteurella multocida; experiment: Treatment of Pasteurella infections in chicks (Table V); type: in vivo, one-day-old chicks; conditions: 30 mg/kg by subcutaneous injection one and four hours post challenge; for mortality at 30 mg/kg: Pasteurella multocida, sc, 4 h, read-out: Deaths in Treated Chicks/Number Treated (converted)
Experimental: Certain OMT ester derivatives are active in vivo against Pasteurella infections. Table V summarizes the results of tests in which the ester derivatives were administered to one-day-old chicks at a dosage level of 30 mg/kg by subcutaneous injection one and four hours post challenge of the chicks with Pasteurella multocida (0.1 ml of a 10^-3 dilution of a 20-hour tryptose broth culture of avian P. multocida given subcutaneously). All nonmedicated infected chicks (ten in each control group) died within 24 hours of Pasteurella challenge.

[26] = tested on: Mycoplasma synoviae; experiment: MIC, broth-dilution microtiter test (Table III); type: cell-based; design: unit not given here
Experimental: as §1

SMILES	minimal inhibitory concentration (MIC) [1]	minimal inhibitory concentration (MIC) [2]	minimal inhibitory concentration (MIC) [3]	minimal inhibitory concentration (MIC) [4]	minimal inhibitory concentration (MIC) [5]	minimal inhibitory concentration (MIC) [6]	minimal inhibitory concentration (MIC) [7]	minimal inhibitory concentration (MIC) [8]	minimal inhibitory concentration (MIC) [9]	minimal inhibitory concentration (MIC) [10]	minimal inhibitory concentration (MIC) [11]	minimal inhibitory concentration (MIC) [12]	minimal inhibitory concentration (MIC) [13]	minimal inhibitory concentration (MIC) [14]	minimal inhibitory concentration (MIC) [16]	minimal inhibitory concentration (MIC) [17]	minimal inhibitory concentration (MIC) [18]	minimal inhibitory concentration (MIC) [20]	minimal inhibitory concentration (MIC) [21]	minimal inhibitory concentration (MIC) [22]	also measured
CCC1OC(=O)CC(O)C(C)C(OC2OC(C)C(OC(C)=O)C(N(C)C)C2OC(C)=O)C(CC=O)CC(C)C(=O)C=CC(C)=CC1COC(=O)[C@H](NC(=O)OC(C)(C)C)c1ccccc1 (stereo partly shown) [Compound 39, 2',4'-Di-O-acetyl-23-O-(N-t-BOC-phenylglycyl)-OMT]	< 0.05	12.5	12.5	12.5	6.25	12.5	1.56	6.25	0.195	1.56	12.5	25	0.03	1	0.5	0.125	0.5	0.5	0.5	1	minimal inhibitory concentration (MIC) [15]: 2; minimal inhibitory concentration (MIC) [19]: 2; minimal inhibitory concentration (MIC) [23]: 0.5; minimal inhibitory concentration (MIC) [24]: 1; mortality at 30 mg/kg [25]: 100%
CCC1OC(=O)CC(O)C(C)C(OC2OC(C)C(O)C(N(C)C)C2OC(C)=O)C(CC=O)CC(C)C(=O)C=CC(C)=CC1COC(=O)CCc1ccccc1 (stereo not shown) [Compound 30]	< 0.05	3.12	3.12	0.78	0.78	3.12	0.195	1.56	< 0.05	0.195	1.56	1.56	0.015	0.25	0.125	0.06	0.25	0.125	0.25	0.25	minimal inhibitory concentration (MIC) [15]: 0.5; minimal inhibitory concentration (MIC) [19]: 0.5; minimal inhibitory concentration (MIC) [23]: 0.125; minimal inhibitory concentration (MIC) [24]: 0.25; Deaths in Treated Chicks/Number Treated [25]: 6/10
CCC1OC(=O)CC(O)C(C)C(OC2OC(C)C(O)C(N(C)C)C2O)C(CC=O)CC(C)C(=O)C=CC(C)=CC1COC(=O)CCc1ccccc1 (stereo not shown) [Compound 54]	0.097	3.12	3.12	0.78	3.12	3.12	0.195	0.78	0.195	0.78	1.56	6.25	0.015	0.25	0.125	0.06	0.125	0.125	0.125	0.25	minimal inhibitory concentration (MIC) [15]: 0.25; minimal inhibitory concentration (MIC) [19]: 0.25; minimal inhibitory concentration (MIC) [23]: 0.125; minimal inhibitory concentration (MIC) [24]: 0.25; Deaths in Treated Chicks/Number Treated [25]: 0/10
CCC1OC(=O)CC(O)C(C)C(OC2OC(C)C(O)C(N(C)C)C2O)C(CC=O)CC(C)C(=O)C=CC(C)=CC1COC(=O)Cc1ccc(Cl)cc1 (stereo not shown) [Compound 32, 23-O-(p-Chlorophenylacetyl)-OMT]	< 0.05	3.12	3.12	0.39	1.56	1.56	0.097	1.56	0.097	3.12	0.78	0.78	0.03	0.25	0.125	0.06	0.125	0.125	0.125	0.25	minimal inhibitory concentration (MIC) [26]: < 0.05; minimal inhibitory concentration (MIC) [23]: 0.125; minimal inhibitory concentration (MIC) [24]: 0.25; mortality at 30 mg/kg [25]: 20%
CCC1OC(=O)CC(O)C(C)C(OC2OC(C)C(OC(C)=O)C(N(C)C)C2OC(C)=O)C(CC=O)CC(C)C(=O)C=CC(C)=CC1COC(=O)Cc1cccnc1 (stereo not shown) [Compound 43, 2',4'-Di-O-acetyl-23O-(3-pyridylacetyl)-OMT]	0.78	6.25	3.12	1.56	3.12	6.25	0.39	3.12	0.195	0.78	3.12	3.12	0.06	0.5	0.25	0.06	0.25	0.25	0.25	0.5	minimal inhibitory concentration (MIC) [26]: < 0.05; minimal inhibitory concentration (MIC) [23]: 0.25; minimal inhibitory concentration (MIC) [24]: 0.5; mortality at 30 mg/kg [25]: 80%
CCC1OC(=O)CC(O)C(C)C(OC2OC(C)C(OC(C)=O)C(N(C)C)C2OC(C)=O)C(CC=O)CC(C)C(=O)C=CC(C)=CC1COC(=O)COc1ccccc1 (stereo not shown) [Compound 34, 2',4'-Di-O-acetyl-23-O-phenoxyacetyl-OMT]	< 0.05	3.12	3.12	1.56	1.56	3.12	0.097	1.56	< 0.05	3.12	1.56	3.12	0.015	0.5	0.25	0.06	0.25	0.25	0.25	0.25	minimal inhibitory concentration (MIC) [15]: 1; minimal inhibitory concentration (MIC) [19]: 1; minimal inhibitory concentration (MIC) [23]: 0.25; minimal inhibitory concentration (MIC) [24]: 0.25; mortality at 30 mg/kg [25]: 90%
